{
  "source": "patent US10383894B2",
  "about": "“Human medicinal treatment using salt of peroxymonosulfuric acid” (LuTran Industries, Inc., priority 2010, dated 2019)",
  "assay_type_in_all_cases": "in vivo, human",
  "key": {"[1]": {"system": "bronchitis", "experiment": "Treatment of persons with bronchitis with the Medicine (Examples 12-14)", "details": "Example 13: prior treatment, no dose given", "description": "(§1) Given below are examples of using the medicinal drug of type I/II for treating allergic rhinitis, osteoarthritis, gouty arthritis, bronchitis, hemorrhoids, urticaria, toothache, tinea pedis, acute viral nasopharyngitis, herpes simplex, dandruff, itching, bromhidrosis, and vaginitis. The formulation of the drug of type I/II used in these examples was the preferred formulation, mentioned above, in which the drug was formed with potassium hydrogen peroxymonosulfate as the active oxygen-releasing material, sodium chloride as the inorganic halide, sodium hexametaphosphate as the alkali metal phosphate, sulfamic acid, malic acid as the non-reducing organic acid, and sodium dodecylbenzene sulfonate as the surfactant at approximately the typical mass percentages mentioned above. A formulation approximating this formulation is commercially available in the product Virkon. This formulation of the drug of type I/II is referred to below as the “Medicine”. […]"}, "[2]": {"system": "gouty arthritis", "experiment": "Treatment of persons with gouty arthritis with the Medicine (Examples 9-11)", "details": "no dose given; for patient-reported outcome of previously tried treatments: Example 11: prior treatment", "description": "Given below are examples of using the medicinal drug of type I/II for treating allergic rhinitis, osteoarthritis, gouty arthritis, bronchitis, hemorrhoids, urticaria, toothache, tinea pedis, acute viral nasopharyngitis, herpes simplex, dandruff, itching, bromhidrosis, and vaginitis. The formulation of the drug of type I/II used in these examples was the preferred formulation, mentioned above, in which the drug was formed with potassium hydrogen peroxymonosulfate as the active oxygen-releasing material, sodium chloride as the inorganic halide, sodium hexametaphosphate as the alkali metal phosphate, sulfamic acid, malic acid as the non-reducing organic acid, and sodium dodecylbenzene sulfonate as the surfactant at approximately the typical mass percentages mentioned above. A formulation approximating this formulation is commercially available in the product Virkon. This formulation of the drug of type I/II is referred to below as the “Medicine”.\nThe Medicine for each person infected with allergic rhinitis, osteoarthritis, gouty arthritis, bronchitis, hemorrhoids, urticaria, toothache, tinea pedis, acute viral nasopharyngitis, herpes simplex, dandruff, itching, bromhidrosis, and vaginitis is provided for topical, intranasal, oral, or/and injection administration 1-12 times per day, preferably 1-8 times per day, more preferably 1-6 times per day, typically 1-4 times per day, in liquid form at a dosage of 0.00001-5%, preferably 0.001-3%, more preferably 0.1-2%, typically 0.5-1%, for a time of contact of 1 minute-12 hours, preferably 1 minute-6 hours, more preferably 1 minute-2 hours, typically 1-30 minutes . The treatment period in each in each of the following examples is normally 1-12 months, preferably 1-6 months, more preferably 1-3 months, typically 1-30 days.\nA retired adult had gouty arthritis for 10 years. The […] reported that they were in excruciating pain on random days and that previously attempted treatments for the pain were unsuccessful. […]"}, "[3]": {"system": "osteoarthritis", "experiment": "Treatment of persons with osteoarthritis with the Medicine (Examples 6-8)", "details": "Example 6: prior treatment, no dose given", "description": "as §1"}, "[4]": {"system": "itching", "experiment": "Treatment of persons with itching with the Medicine (Examples 41-43)", "details": "no dose given", "description": "as §1"}, "[5]": {"system": "vaginitis", "experiment": "Treatment of persons with vaginitis with the Medicine (Examples 48-50)", "details": "no dose given", "description": "as §1"}, "[6]": {"system": "dandruff", "experiment": "Treatment of persons with dandruff with the Medicine (Examples 37-40)", "details": "Example 37: prior treatment, (some of) these decreased the amount of dandruff", "description": "Given below are examples of using the medicinal drug of type I/II for treating allergic rhinitis, osteoarthritis, gouty arthritis, bronchitis, hemorrhoids, urticaria, toothache, tinea pedis, acute viral nasopharyngitis, herpes simplex, dandruff, itching, bromhidrosis, and vaginitis. […] A formulation approximating this formulation is commercially available in the product Virkon. This formulation of the drug of type I/II is referred to below as the “Medicine”.\nThe Medicine was provided to […] as a 1% solution for topical administration by scrubbing the Medicine into their scalp and hair for 5 minutes and then washing their scalp and hair. The […] reported that they administered the Medicine to themself in the foregoing manner 4 times a week for 2 weeks."}, "[7]": {"system": "acute viral nasopharyngitis", "experiment": "Treatment of persons with acute viral nasopharyngitis with the Medicine (Examples 28-32)", "details": "Example 30: prior treatment, no dose given"}},
  "data": [
    {"compound": "COc1ccc2c3c1O[C@H]1[C@@H](O)C=C[C@H]4[C@@H](C2)N(C)CC[C@@]341", "note": "[codeine]", "values": [
      {"measurement": "patient-reported outcome of previously tried treatments for bronchitis", "setting": "[1]", "value": "little success"}
    ]},
    {"compound": "COc1cc2c(c(OC)c1OC)-c1ccc(OC)c(=O)cc1[C@@H](NC(C)=O)CC2", "note": "[colchicines, colchicine]", "values": [
      {"measurement": "patient-reported outcome of previously tried treatments", "setting": "[2]", "value": "without significant success"}
    ]},
    {"compound": "N[C@H]1C(O)O[C@H](CO)[C@@H](O)[C@@H]1O", "note": "(some centres unmarked) [glucosamine]", "values": [
      {"measurement": "patient-reported outcome of previously tried treatments for osteoarthritis", "setting": "[3]", "value": "without effective relief"}
    ]},
    {"compound": "C[C@]12CCC(=O)C=C1CC[C@@H]1[C@@H]2[C@@H](O)C[C@@]2(C)[C@H]1CC[C@]2(O)C(=O)CO", "note": "[hydrocortisone]", "values": [
      {"measurement": "patient-reported outcome of previously tried treatments for itching", "setting": "[4]; Example 42: prior treatment", "value": "without success"},
      {"measurement": "patient-reported outcome of previously tried treatments for itching", "setting": "[4]; Example 43: prior treatment", "value": "little success"},
      {"measurement": "patient-reported outcome of previously tried treatments for vaginitis", "setting": "[5]; Example 48: prior treatment", "value": "without significant success"},
      {"measurement": "patient-reported outcome of previously tried treatments for vaginitis", "setting": "[5]; Example 50: prior treatment", "value": "to no avail"}
    ]},
    {"compound": "CC(C)Cc1ccc(C(C)C(=O)O)cc1", "note": "(centres unmarked) [ibuprofen]", "values": [
      {"measurement": "patient-reported outcome of previously tried treatment for gouty arthritis", "setting": "[2]; Example 10: prior treatment", "value": "no significant success"},
      {"measurement": "patient-reported outcome of previously tried treatments", "setting": "[2]", "value": "without significant success"}
    ]},
    {"compound": "CC(=O)N1CCN(c2ccc(OCC3COC(Cn4ccnc4)(c4ccc(Cl)cc4Cl)O3)cc2)CC1", "note": "(centres unmarked) [ketoconazole]", "values": [
      {"measurement": "patient-reported outcome of previously tried treatments for dandruff", "setting": "[6]", "value": "dandruff was still visible on their scalp"}
    ]},
    {"compound": "CC(=O)Nc1ccc(O)cc1", "note": "[paracetamol]", "values": [
      {"measurement": "patient-reported outcome of previously tried treatments for acute viral nasopharyngitis", "setting": "[7]", "value": "little success"}
    ]},
    {"compound": "CN[C@@H](C)[C@@H](O)c1ccccc1", "note": "[pseudoephedrine]", "values": [
      {"measurement": "patient-reported outcome of previously tried treatments for acute viral nasopharyngitis", "setting": "[7]", "value": "little success"}
    ]},
    {"compound": "S=[Se]=S", "note": "[selenium sulfide]", "values": [
      {"measurement": "patient-reported outcome of previously tried treatments for dandruff", "setting": "[6]", "value": "dandruff was still visible on their scalp"}
    ]},
    {"compound": "zinc pyrithione", "values": [
      {"measurement": "patient-reported outcome of previously tried treatments for dandruff", "setting": "[6]", "value": "dandruff was still visible on their scalp"}
    ]}
  ]
}
